In US20110160249A1, “5-LIPOXYGENASE-ACTIVATING PROTEIN INHIBITOR” (priority 2008, published 2011):

What was measured:
LTB4 in Rat Whole Blood = test: Rat whole blood LTB4 inhibition assay; format: cell-based; details: mean of 5 tests
CYP 2D6 = target: T1, CYP 2D6 (Homo sapiens, UniProt P10635); test: Extracellular Cytochrome P450 inhibition, 2D6; format: in vitro ADME; details: dextromethorphan O-demethylation
T1 construct: microsomes were incubated test substrates, which were known to be metabolized by CYP enzymes, with or without Compound 2; from tissue
T1 sequence (P10635 whole entry): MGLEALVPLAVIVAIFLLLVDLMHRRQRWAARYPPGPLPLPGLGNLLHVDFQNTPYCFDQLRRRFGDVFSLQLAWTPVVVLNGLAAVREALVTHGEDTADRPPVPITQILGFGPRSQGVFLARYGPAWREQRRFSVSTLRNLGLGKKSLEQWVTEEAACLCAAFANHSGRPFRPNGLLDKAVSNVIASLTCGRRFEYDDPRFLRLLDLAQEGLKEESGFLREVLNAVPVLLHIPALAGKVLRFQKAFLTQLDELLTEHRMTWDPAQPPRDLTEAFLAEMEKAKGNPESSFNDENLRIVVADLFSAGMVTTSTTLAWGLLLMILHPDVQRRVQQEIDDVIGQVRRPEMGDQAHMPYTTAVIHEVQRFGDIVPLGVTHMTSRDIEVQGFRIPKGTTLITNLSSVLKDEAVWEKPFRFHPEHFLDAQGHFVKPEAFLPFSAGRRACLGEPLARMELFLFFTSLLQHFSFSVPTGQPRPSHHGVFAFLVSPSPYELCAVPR

CYP3A4 = target: T2, CYP3A4 (Homo sapiens, UniProt P08684); test: Extracellular Cytochrome P450 inhibition, 3A4; format: in vitro ADME
T2 construct: from tissue
T2 sequence (P08684 whole entry): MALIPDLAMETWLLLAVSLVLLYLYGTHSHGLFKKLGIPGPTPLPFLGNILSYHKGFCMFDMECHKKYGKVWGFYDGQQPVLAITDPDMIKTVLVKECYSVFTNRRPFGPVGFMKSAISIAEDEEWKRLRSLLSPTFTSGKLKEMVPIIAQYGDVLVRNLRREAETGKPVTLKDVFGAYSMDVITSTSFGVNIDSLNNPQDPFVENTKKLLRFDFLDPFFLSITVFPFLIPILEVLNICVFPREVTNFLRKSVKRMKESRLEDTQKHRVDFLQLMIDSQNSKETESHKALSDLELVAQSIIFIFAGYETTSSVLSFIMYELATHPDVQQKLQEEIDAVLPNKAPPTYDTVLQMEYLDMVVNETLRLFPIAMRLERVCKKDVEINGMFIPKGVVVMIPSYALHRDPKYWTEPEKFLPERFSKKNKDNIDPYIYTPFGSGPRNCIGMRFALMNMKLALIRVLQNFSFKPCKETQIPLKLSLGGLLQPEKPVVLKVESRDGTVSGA

[1] = Thermodynamic Aqueous Solubility by HPLC; format: physicochemical; details: water, 25° C., 24 hours
Description: Aqueous solubility was determined by suspending sufficient compound in water to give a maximum final concentration of ≧10 mg·ml^−1 of the parent free-form of the compound. The suspension was equilibrated at 25° C. for 24 hours then the pH was measured. The suspension was then filtered through a glass fibre C filter into a 96 well plate. The filtrate was then diluted by a factor of 101. Quantitation was by HPLC with reference to a standard solution of approximately 0.1 mg·ml^−1 in DMSO. Different volumes of the standard, diluted and undiluted sample solutions were injected. The solubility was calculated using the peak areas determined by integration of the peak found at the same retention time as the principal peak in the standard injection.
Analysis was performed on an Agilent HP1100 series system equipped with a diode array detector and using ChemStation software vB.02.01-SR1.

urinary LTE4 production = test: Phase I study, urinary LTE4; format: in vivo, human; details: for Emax: Homo sapiens
Excerpt: Study Design: Single center, double-blind, randomized, placebo-controlled, single ascending dose followed by multiple ascending dose study.
Sample Size: (1) Single Dose Phase: eight (8) subjects (6 active, 2 placebo) per dose level; up to 5 dose levels are planned (a total of 40 subjects if all 5 dose levels are completed); and (2) Multiple Dose Phase: eight (8) subjects (6 active, 2 placebo) per dose level; up to 4 dose levels are planned (a total of 32 subjects if all 4 dose levels are completed).
Formulations: Compound 2 was supplied as an oral powder for reconstitution. Placebo solution matched. […] The placebo differed only in the absence of the active.
The following dosing cohorts were used:
Routes of Administration: All doses were administered orally with approximately 100 mL of water rinse. Subjects were fasted for at least 8 hours prior to dosing and for 2 hours after dosing. For BID dosing in the Multiple Dose Phase, when applicable, subjects were fasted for at least 2 hours prior to the second daily dose.
Plasma concentrations of Compound 1 were determined using a validated LC/MS method. Whole blood ionophore-stimulated leukotriene LTB4 and urinary LTE4 production were assayed by ELISA and mass spectrometry, respectively.
Analysis of Samples: Concentrations of Compound 1 was determined in plasma samples collected from subjects. Similarly, concentrations of LTB4 in plasma and urinary LTE4 were determined in blood and urine samples collected.

CYP 2C19 = target: T3, CYP 2C19 (Homo sapiens, UniProt P33261); test: Extracellular Cytochrome P450 inhibition, 2C19; format: in vitro ADME; details: mephenytoin 4′-hydroxylation
T3 construct: from tissue
T3 sequence (P33261 whole entry): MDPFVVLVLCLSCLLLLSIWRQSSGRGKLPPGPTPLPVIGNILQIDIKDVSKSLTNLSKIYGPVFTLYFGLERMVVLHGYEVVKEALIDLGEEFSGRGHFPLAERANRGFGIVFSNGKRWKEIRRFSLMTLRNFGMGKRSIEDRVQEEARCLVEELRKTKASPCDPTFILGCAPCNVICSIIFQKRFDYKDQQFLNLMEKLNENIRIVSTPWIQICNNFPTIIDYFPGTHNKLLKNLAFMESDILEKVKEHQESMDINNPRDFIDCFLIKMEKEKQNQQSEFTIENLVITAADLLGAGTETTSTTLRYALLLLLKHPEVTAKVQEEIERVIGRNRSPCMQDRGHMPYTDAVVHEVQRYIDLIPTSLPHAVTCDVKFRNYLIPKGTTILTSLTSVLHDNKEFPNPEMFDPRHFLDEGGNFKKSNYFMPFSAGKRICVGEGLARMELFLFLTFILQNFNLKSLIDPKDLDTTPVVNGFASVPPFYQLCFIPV
Excerpt: Final solvent concentrations were 1% (v/v) or less.

CYP2C9 = test: Cellular Cytochrome P450 induction, CYP2C9; details: tested at 10 μM, cryopreserved human hepatocytes
CYP 2C9 = target: T4, CYP 2C9 (Homo sapiens, UniProt P11712); test: Extracellular Cytochrome P450 inhibition, 2C9; format: in vitro ADME; details: diclofenac 4′-hydroxylation
T4 construct: from tissue
T4 sequence (P11712 whole entry): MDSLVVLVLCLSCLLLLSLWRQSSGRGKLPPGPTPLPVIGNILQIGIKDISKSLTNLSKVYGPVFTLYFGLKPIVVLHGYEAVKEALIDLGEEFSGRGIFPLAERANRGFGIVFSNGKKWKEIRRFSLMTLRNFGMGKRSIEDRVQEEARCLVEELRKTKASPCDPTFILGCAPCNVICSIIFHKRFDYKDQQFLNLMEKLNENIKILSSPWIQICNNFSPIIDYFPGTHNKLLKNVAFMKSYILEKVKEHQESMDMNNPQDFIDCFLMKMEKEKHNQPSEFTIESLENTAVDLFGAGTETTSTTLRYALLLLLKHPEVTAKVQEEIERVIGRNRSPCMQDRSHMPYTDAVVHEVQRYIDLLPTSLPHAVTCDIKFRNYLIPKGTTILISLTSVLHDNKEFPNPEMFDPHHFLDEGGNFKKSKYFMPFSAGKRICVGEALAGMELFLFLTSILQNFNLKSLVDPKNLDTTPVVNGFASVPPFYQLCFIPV

CYP 1A2 = CYP 1A2 (Homo sapiens, UniProt P05177); test: Extracellular Cytochrome P450 inhibition, 1A2
CYP 1A2, sequence (P05177 whole entry): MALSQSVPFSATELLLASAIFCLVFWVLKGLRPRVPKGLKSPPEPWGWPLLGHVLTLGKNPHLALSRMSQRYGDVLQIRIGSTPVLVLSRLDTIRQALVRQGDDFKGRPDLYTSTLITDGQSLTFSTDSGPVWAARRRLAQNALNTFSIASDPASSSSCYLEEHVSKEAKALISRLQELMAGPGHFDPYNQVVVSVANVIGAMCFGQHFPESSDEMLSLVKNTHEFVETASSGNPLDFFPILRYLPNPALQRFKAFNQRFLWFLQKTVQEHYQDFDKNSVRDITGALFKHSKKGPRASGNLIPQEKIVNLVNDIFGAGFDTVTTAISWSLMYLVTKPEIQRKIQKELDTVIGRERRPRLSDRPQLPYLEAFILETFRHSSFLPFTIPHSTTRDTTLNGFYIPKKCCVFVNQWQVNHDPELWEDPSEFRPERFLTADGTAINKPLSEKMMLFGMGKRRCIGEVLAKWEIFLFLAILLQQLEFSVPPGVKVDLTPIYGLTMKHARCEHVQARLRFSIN
Description: Aliquots of this mixture to (89 μL) were delivered to each well of a 96-well polypropylene plate which contained an aliquot of inhibitor (1 μL). Final solvent concentrations were 1% (v/v) or less. Incubations were commenced with the addition of 10 μL β-NADPH (10 mM stock) to a final volume of 100 μL. […] Samples were centrifuged, and supernatant was transferred for LC-MS analysis.

IC50 (LTB4 in Rat Whole Blood): 0.239 µM
IC90 (LTB4 in Rat Whole Blood): 1.63 µM
IC50 (CYP 2D6): > 50 µM
IC50 (CYP3A4; midazolam 1-hydroxylation): > 50 µM
IC50 (CYP3A4; testosterone 6β-hydroxylation): > 40 µM
Concentration of filtrate (as mg/mL of free base) [1]: greater than 10 mg/mL
pH of unfiltered saturated solution [1]: above 9
IC50 (CYP 2C19): > 40 µM
induction of CYP2C9 (CYP2C9): No apparent induction
IC50 (CYP 2C9): > 50 µM
IC50 (CYP 1A2): > 40 µM
SMILES: CCOc1ccc(-c2ccc(Cn3c(CC(C)(C)C(=O)[O-])c(SC(C)(C)C)c4cc(OCc5ccc(C)cn5)ccc43)cc2)cn1.[Na+] [Compound 2, sodium 3-[3-(tert-butylsulfanyl)-1-[4-(6-ethoxy-pyridin-3-yl)benzyl]-5-(5-methyl-pyridin-2-yl-methoxy)-1H-indol-2-yl]-2,2-dimethylpropionate]
Emax (urinary LTE4 production; 24 h, Multiple dose part, Day 1, 10 mg): 54.1%
Emax (urinary LTE4 production; 24 h, Multiple dose part, Day 1, 50 mg): 94%
Emax (urinary LTE4 production; 24 h, Multiple dose part, Day 1, 150 mg): 98.3%
Emax (urinary LTE4 production; 24 h, Multiple dose part, Day 1, 450 mg): 85.7%
Emax (urinary LTE4 production; 24 h, Single dose part, Day 1, 50 mg): 86.3%
Emax (urinary LTE4 production; 24 h, Single dose part, Day 1, 150 mg): 97.4%
Emax (urinary LTE4 production; 24 h, Single dose part, Day 1, 300 mg): 97%
Emax (urinary LTE4 production; 24 h, Single dose part, Day 1, 600 mg): 96%
Emax (urinary LTE4 production; 24 h, Single dose part, Day 1, 1000 mg): 96.6%
Emax (urinary LTE4 production; 264 h, Multiple dose part, Day 11, 10 mg): 88.6%
Emax (urinary LTE4 production; 264 h, Multiple dose part, Day 11, 50 mg): 97.7%
Emax (urinary LTE4 production; 264 h, Multiple dose part, Day 11, 150 mg): 97.5%
Emax (urinary LTE4 production; 264 h, Multiple dose part, Day 11, 450 mg): 98.4%
Tmax (h), LTE4 (urinary LTE4 production; Multiple dose part, Day 1, 10 mg): 24.00 h
Tmax (h), LTE4 (urinary LTE4 production; Multiple dose part, Day 1, 50 mg): 16.00 h
Tmax (h), LTE4 (urinary LTE4 production; Multiple dose part, Day 1, 150 mg): 24.00 h
Tmax (h), LTE4 (urinary LTE4 production; Multiple dose part, Day 1, 450 mg): 24.00 h
Tmax (h), LTE4 (urinary LTE4 production; Multiple dose part, Day 11, 10 mg): 12.00 h
Tmax (h), LTE4 (urinary LTE4 production; Multiple dose part, Day 11, 50 mg): 9.00 h
Tmax (h), LTE4 (urinary LTE4 production; Multiple dose part, Day 11, 150 mg): 24.00 h
Tmax (h), LTE4 (urinary LTE4 production; Multiple dose part, Day 11, 450 mg): 12.00 h
Tmax (h), LTE4 (urinary LTE4 production; Single dose part, Day 1, 50 mg): 16.00 h
Tmax (h), LTE4 (urinary LTE4 production; Single dose part, Day 1, 150 mg): 16.00 h
Tmax (h), LTE4 (urinary LTE4 production; Single dose part, Day 1, 300 mg): 24.00 h
Tmax (h), LTE4 (urinary LTE4 production; Single dose part, Day 1, 600 mg): 24.00 h
Tmax (h), LTE4 (urinary LTE4 production; Single dose part, Day 1, 1000 mg): 16.00 h
